EP0065226A2, “Sulfenamides, process for their preparation, their utilisation as medicines and their preparation” (BAYER AG, priority 1981, dated 1982)

Target: T1, Plättchenlipoxygenase (Homo sapiens, UniProt P18054)
T1 construct: der Metabolismus radioaktiv markierter Arachidonsäure an gewaschenen Humanthrombozyten herangezogen; endogenous in cells; host or cells: washed human platelets
T1 sequence (P18054 1-663): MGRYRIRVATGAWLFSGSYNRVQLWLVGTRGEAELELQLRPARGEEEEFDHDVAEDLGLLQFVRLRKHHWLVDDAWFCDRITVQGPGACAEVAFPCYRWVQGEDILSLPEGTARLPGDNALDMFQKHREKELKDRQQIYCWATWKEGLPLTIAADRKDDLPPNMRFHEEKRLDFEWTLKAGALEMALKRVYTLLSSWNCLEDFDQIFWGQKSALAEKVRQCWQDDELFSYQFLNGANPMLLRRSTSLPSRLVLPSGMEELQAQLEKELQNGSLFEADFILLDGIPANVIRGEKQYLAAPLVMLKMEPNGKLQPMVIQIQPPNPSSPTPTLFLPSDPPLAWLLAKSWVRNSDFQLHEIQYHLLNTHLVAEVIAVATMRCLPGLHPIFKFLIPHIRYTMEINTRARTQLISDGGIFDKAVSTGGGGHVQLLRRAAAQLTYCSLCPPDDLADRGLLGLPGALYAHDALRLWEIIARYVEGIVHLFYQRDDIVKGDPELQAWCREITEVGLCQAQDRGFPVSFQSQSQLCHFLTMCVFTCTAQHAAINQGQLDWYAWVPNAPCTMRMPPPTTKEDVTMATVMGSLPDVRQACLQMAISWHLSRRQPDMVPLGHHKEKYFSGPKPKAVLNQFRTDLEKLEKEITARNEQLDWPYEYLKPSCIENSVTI
Assay: Inhibition of platelet lipoxygenase (HETE synthesis), metabolism of radiolabelled arachidonic acid in washed human platelets
Format: cell-based
Details: HETE-Synthese, gewaschene Humanthrombozyten; lowest concentration giving at least 50 % inhibition
Text: Der Nachweis der lipoxygenasehemmenden Eigenschaften der Sulfenamide erfolgt analog der Methode von Bailey et al., J. Biol. Chem. 255, 5996, (1980) und nach Blackwell und Flower, Brostaglandins 16, 417 (1979). Bei dieser Testmethode wird der Metabolismus radioaktiv markierter Arachidonsäure an gewaschenen Humanthrombozyten herangezogen. Bei diesem in vitro Test werden die radioaktiv markierten Metaboliten aus dem Reaktionsansatz extrahiert und dünnschichtchromatographisch getrennt. Das Autoradiogramm wird am Dünnschicht-Scanner ausgewertet. Bei diesen Testbedingungen werden die markierten Metaboliten von der nicht umgesetzten Arachidonsäure getrennt und sind anschließend quantitativ auswertbar. Die Verteilung der Radioaktivität auf die während der Metabolisierung gebildeten Cyclooxygenaseprodukte Thromboxan B2 (TXB2) und 12-Hydroxy-5,8,10-heptadekatriensäure (HHT) bzw. das Lipoxygenaseprodukt 12-Hydroxy-5,8,11,14-eikosatetraensäure (HETE) unter dem Einfluß der Inhibitoren stellt ein Maß für die Hemmung der Enzyme dar.
Die Lipoxygenasehemmung der erfindungsgemäßen Sulfenamide läßt sich an der Hemmung der HETE-Synthese messen.. Es zeigt sich, daß die Synthese von TXB2und von HHT unbeeinflußt bleibt, während der Arachidonsäureumsatz abnimmt. Wie aus der nachfolgenden Tabelle ersichtlich ist, bewirken die Sulfenamide eine signifikante Hemmung der Plättchenlipoxygenase (HETE-Synthese).
Hemmung der Plättchenlipoxygenase (HETE-Synthese)

| Compound | Minimale effektive Hemmkonzen-zentration (mindestens 50 % Hemmung) |
| --- | --- |
| Clc1ccc(SNc2nc[nH]n2)cc1 [Beispiel 10] | 3e-06 g/mL |
| Clc1ccc(SNc2ncccn2)cc1 [Beispiel 5] | 10^-6 g/ml |
| Cc1nsc(NSc2ccc(Cl)cc2)n1 [Beispiel 17] | 10^-6 g/ml |
| CCCc1nsc(NSc2ccc(Cl)cc2)n1 [Beispiel 20] | 3e-06 g/mL |
| Clc1ccc(SNc2nc(-c3ccccc3)ns2)cc1 [Beispiel 13] | 10^-6 g/ml |
| Cc1nc(NSc2ccccc2)ns1 [Beispiel 18] | 10^-6 g/ml |
| CCCc1nsc(NSc2ccccc2)n1 [Beispiel 19] | 3e-06 g/mL |
| Cc1nsc(NSc2ccccc2)n1 [Beispiel 16] | 3e-06 g/mL |
| Clc1c(Cl)c(Cl)c(SNc2ncccn2)c(Cl)c1Cl [Beispiel 4] | 10^-6 g/ml |
| c1ccc(SNc2nc(-c3ccccc3)ns2)cc1 [Beispiel 12] | 3e-06 g/mL |
| O=C1C(Sc2ccccc2)C(NSc2ccccc2)=NN1c1ccccc1 (stereo not drawn) [Beispiel 24] | 3e-06 g/mL |
| CC(C)(C)c1ccc(SNc2ncccn2)cc1 [Beispiel 6] | 10^-6 g/ml |
| Clc1ccc(SNc2ccccn2)cc1 [Beispiel 23] | 10^-5 g/ml |
| c1ccc(SNc2ncccn2)cc1 [Beispiel 2] | 10^-6 g/ml |

Tested on: Leukozytenmigration
Assay: Inhibition of leukocyte migration, drug-soaked sponge implanted under the dorsal skin of rats
Format: in vivo, Ratten
Details: Dosis, lokal 10 mg/Ratte; sponge soaked with compound under the dorsal skin
Text: Die erfindungsgemäßen Sulfenamide sind auch […] wirksam. Diese Wirkung wird durch die Messung der Hemmung der Leukozytenmigration nach an sich bekannten Methoden nachgewiesen (vgl. Higgs et al., Biochemical Pharmacology 28, 1959 (1979) und Eur. J. Pharmacol. 66, 81 (1980)). In der nachfolgenden Tabelle 2 sind die Wirkungen einiger beispielhafter Sulfenamide nach lokaler Applikation, durch Einführen eines mit Wirkstoff getränkten Schwämmchens unter die Rückenhaut von Ratten, zusammengefaßt.

| Compound | Hemmung der Leukozyten-migration (Kontrolle = 0 %) |
| --- | --- |
| Cc1nsc(NSc2ccc(Cl)cc2)n1 [Beispiel 17] | 53% |
| COC(=O)c1ccc(SNc2nc[nH]n2)cc1 [Beispiel 30] | 31% |
| Clc1ccc(SNc2nnc(N3CCOCC3)s2)cc1 [Beispiel 37] | 22% |
| Cc1nsc(NSc2ccccc2)n1 [Beispiel 16] | 67% |
| c1ccc(SNc2nc(-c3ccccc3)ns2)cc1 [Beispiel 12] | 35% |
| Cc1nnc(NSc2ccccc2)s1 [Beispiel 25] | 80% |
| FC(F)(F)c1cc(SNc2nc[nH]n2)ccc1Cl [Beispiel 28] | 29% |
| Cc1nnc(NSc2ccc(Cl)cc2)s1 [Beispiel 39] | 60% |
| c1ccc(SNc2ncccn2)cc1 [Beispiel 2] | 45% |
| c1ccc(SNc2nc[nH]n2)cc1 [Beispiel 11] | 76% |
